Assay results taken from patent US6696600B2, “L-DOPA ethyl ester salts and uses thereof” (priority 2001, dated 2004).
Where two headings read alike, the source gives them in different places.

How the values were obtained:
Format in all cases: physicochemical
[1] = pKa and delta pKa (pKa LDEE − pKa acid)
From the text: Preparation and selection of salts that have different physical properties are detailed in the literature. […]. PKa of LDEE free base is known to be 7.24 [8]. […]. This fact is illustrated in Example 1 below, in which the crystallization of LDEE palmitate was attempted. After dissolution of LDEE base and palmitic acid in absolute alcohol, the solution was cooled, and instead of forming a new salt, pure palmitic acid was crystallized out, and no solid crystalline salt was formed. […]

[2] = Hygroscopicity test: weight gain of solid sample in humidity chamber at RH=80%; conditions: for hygroscopicity (in words): RH=80% screening; for weight gain in hygroscopicity test / appearance after exposure in a humidity chamber: RH=80%; for weight gain in hygroscopicity test: T=20±2° C.
From the text: There are many methods of quantitative evaluation of hygroscopicity of solid products without measuring the hygroscopic point. The most widely used method is based on measuring the weight gain of a solid sample in a humidity chamber. […] This method was used for screening the hygroscopicity of several LDEE salts. It also provides a comparison of the hygroscopic properties of different solids by comparison of water absorption rates under the same conditions.

pH of water solution = test: pH of water solution

appearance after exposure in a humidity chamber ([2]; about 24 hrs)	Molecule	delta pKa pKaLDEE − pKaacid (first value) [1]	Color stability at RH = 80% [2] [h]	Mean water absorption rate at RH = 80% [2] [mol/kg/h]	Material appearance after 24 hrs at RH = 80% [2]	Weight gain during 24 hrs at RH = 80%,% [2] [%]	hygroscopicity (in words) [2]	weight gain in hygroscopicity test ([2]; during 24 hrs) [%]	pH of water solution (pH of water solution)	delta pKa pKaLDEE − pKaacid (second value) [1]	delta pKa pKaLDEE − pKaacid (third value) [1]	delta pKa pKaLDEE − pKaacid (first value) ([1]; first pKa of the acid)	delta pKa pKaLDEE − pKaacid (second value) ([1]; second pKa of the acid)	delta pKa pKaLDEE − pKaacid (third value) ([1]; third pKa of the acid)	water absorption at RH=80% (in words) [2]	appearance after exposure in a humidity chamber ([2]; about 48 hrs)	weight gain in hygroscopicity test ([2]; during 8 hrs) [%]
	LDEE Palmitate [Example 20]	2.4															
	Stearate	˜2.4															
	CCCCC(=O)O.CCOC(=O)[C@@H](N)Cc1ccc(O)c(O)c1 [Example 18, LDEE Valerate]	˜2.4															
	LDEE Phenylbutyrate [Example 10]	2.48	1.0	0.023	Semi-solid melt	1.0	hygroscopic	1.03	5.5-6.0								
	CCOC(=O)[C@@H](N)Cc1ccc(O)c(O)c1.O=C(O)CC(O)(CC(=O)O)C(=O)O [Example 13, LDEE Citrate]	4.11								4.28	0.84						
	LDEE Oleate [Example 26]	˜2.4															
	CCOC(=O)[C@@H](N)Cc1ccc(O)c(O)c1.O=P(O)(O)O [Example 11, LDEE Phosphate]	5.09	15	0.147	Semi-solid melt	6.4		6.4		0.04	−4.6						
	CCO.CCOC(=O)[C@@H](N)Cc1ccc(O)c(O)c1.CCOC(=O)[C@@H](N)Cc1ccc(O)c(O)c1.O=C(O)CCCCC(=O)O [Example 21, LDEE Adipate Ethanolate]	2.81	>24	0.121	Semi-solid melt	5.25	hygroscopic	5.25	6	1.83							
	CCOC(=O)[C@@H](N)Cc1ccc(O)c(O)c1.O=C(O)[C@@H](O)c1ccccc1 [Example 16, LDEE S(+)Mandelate]											3.4					
	LDEE Citrate [Example 12]		20	0.146	Semi-solid melt	6.3	hygroscopic	6.3				4.11	4.28	0.84			
	CCOC(=O)[C@@H](N)Cc1ccc(O)c(O)c1.O=C(O)C(O)C(O)C(=O)O [Example 6, LDEE D(−)Tartrate]		20	0.155		6.7		6.7				4.26					
	CCOC(=O)[C@@H](N)Cc1ccc(O)c(O)c1.O=C(O)[C@@H](O)c1ccccc1 [Example 15, LDEE S(+)Mandelate]	3.4	>24	0.092	Semi-solid melt	4.0	hygroscopic	4.02									
	CCCCCCCC(=O)O.CCOC(=O)[C@@H](N)Cc1ccc(O)c(O)c1 [Example 19, LDEE Octanoate]	2.35	>48	0.005	White flowable powder	0.22	non-hygroscopic	0.22	6.0-6.5						did not absorb water	white flowable powder	
	CCOC(=O)C(N)Cc1ccc(O)c(O)c1.O=C(O)C(O)c1ccccc1 (stereo not drawn) [Example 17, LDEE R(−)Mandelate]		>24	0.125	Semi-solid melt	5.4	hygroscopic	5.4				3.4					
	CCOC(=O)[C@@H](N)Cc1ccc(O)c(O)c1.O=C(O)c1ccccc1 [Example 8, LDEE Benzoate]	3.03	4.5	0.09	Semi-solid melt	4.1	hygroscopic	4.1									
	CCO.CCOC(=O)[C@@H](N)Cc1ccc(O)c(O)c1.CCOC(=O)[C@@H](N)Cc1ccc(O)c(O)c1.O=C(O)CCC(=O)O [Example 22, LDEE Succinate Ethanolate]	3.08	>24	0.067	Semi-solid melt	2.9	hygroscopic		6	1.63							4.3
	LDEE Ascorbate [Example 14]	3.14	0 to 5	0.162	Red semi-solid melt	7.0	hygroscopic	7.04									
	CCOC(=O)C(N)Cc1ccc(O)c(O)c1.O=C(O)C(O)c1ccccc1 (stereo not drawn) [R(−)Mandelate from chloroform, LDEE R(−)Mandelate]		>24		Semi-solid melt												
	CCO.CCOC(=O)[C@@H](N)Cc1ccc(O)c(O)c1.O=C(O)/C=C\C(=O)O [Example 28, LDEE Maleate Ethanolate]	5.35	3	0.07	Yellowish syrup	3.1	hygroscopic	3.1	6.4	1.02							
white flowable powder	LDEE Myristate [Example 27]	˜2.4	>48	0.002	White flowable powder	0.11	non-hygroscopic	0.11							did not absorb water		
	CCOC(=O)[C@@H](N)Cc1ccc(O)c(O)c1.O=C(O)C(O)C(O)C(=O)O [Example 5, LDEE Hydrogen L(+)Tartrate]	4.26	19	0.23	Syrup	10.1	hygroscopic	10.1		2.90							
	CCOC(=O)[C@@H](N)Cc1ccc(O)c(O)c1.O=C(O)C(O)C(O)C(=O)O [Example 4, LDEE L(+)Tartrate]	4.26	15	0.164	Syrup	7.1	hygroscopic	7.1		2.90							
	CCOC(=O)C(N)Cc1ccc(O)c(O)c1.O=C(O)C(O)C(O)C(=O)O (mixture of isomers) [Example 7, LDEE (LD)Tartrate]	4.26	20	0.146	Syrup	6.3	hygroscopic	6.3		2.90							
